Data: the supplement of paper PMC13380429

How the values were obtained:
Settings in all cases: 72 h
Caco-2 [1] = assay: cell viability relative to DMSO; higher = less toxic
Calu-3 [2] = assay: as above
HepG2 [3] = assay: as above
Caco-2 [4] = assay: relative viability EC50 (midpoint between 100% and the lowest measured viability); higher = less toxic
Calu-3 [5] = assay: as above
HepG2 [6] = assay: as above
Caco-2 [7] = assay: drug sensitivity score (DSS) for viability; higher = more toxic; extreme values may be limits of the assay
Calu-3 [8] = assay: as above
HepG2 [9] = assay: as above
U2OS [10] = assay: cell viability relative to DMSO; higher = less toxic
Vero E6 [11] = assay: as above
U2OS [12] = assay: relative viability EC50 (midpoint between 100% and the lowest measured viability); higher = less toxic
Vero E6 [13] = assay: as above
U2OS [14] = assay: drug sensitivity score (DSS) for viability; higher = more toxic; extreme values may be limits of the assay
Vero E6 [15] = assay: as above

| Structure (SMILES) | cell viability (Caco-2 [1]; 1 nM) [%] | cell viability (Caco-2 [1]; 10 nM) [%] | cell viability (Caco-2 [1]; 100 nM) [%] | cell viability (Caco-2 [1]; 1000 nM) [%] | cell viability (Caco-2 [1]; 10000 nM) [%] | cell viability (Calu-3 [2]; 1 nM) [%] | cell viability (Calu-3 [2]; 10 nM) [%] | cell viability (Calu-3 [2]; 100 nM) [%] | cell viability (Calu-3 [2]; 1000 nM) [%] | cell viability (Calu-3 [2]; 10000 nM) [%] | cell viability (HepG2 [3]; 1 nM) [%] | cell viability (HepG2 [3]; 10 nM) [%] | cell viability (HepG2 [3]; 100 nM) [%] | cell viability (HepG2 [3]; 1000 nM) [%] | cell viability (HepG2 [3]; 10000 nM) [%] | relative viability EC50 (Caco-2 [4]) [µM] | relative viability EC50 (Calu-3 [5]) [µM] | relative viability EC50 (HepG2 [6]) [µM] | drug sensitivity score (Caco-2 [7]) | drug sensitivity score (Calu-3 [8]) | drug sensitivity score (HepG2 [9]) | cell viability (U2OS [10]; 1 nM) [%] | cell viability (U2OS [10]; 10 nM) [%] | cell viability (U2OS [10]; 100 nM) [%] | cell viability (U2OS [10]; 1000 nM) [%] | cell viability (U2OS [10]; 10000 nM) [%] | cell viability (Vero E6 [11]; 1 nM) [%] | cell viability (Vero E6 [11]; 10 nM) [%] | cell viability (Vero E6 [11]; 100 nM) [%] | cell viability (Vero E6 [11]; 1000 nM) [%] | cell viability (Vero E6 [11]; 10000 nM) [%] | relative viability EC50 (U2OS [12]) [µM] | relative viability EC50 (Vero E6 [13]) [µM] | drug sensitivity score (U2OS [14]) | drug sensitivity score (Vero E6 [15]) |
| --- | --- | --- | --- | --- | --- | --- | --- | --- | --- | --- | --- | --- | --- | --- | --- | --- | --- | --- | --- | --- | --- | --- | --- | --- | --- | --- | --- | --- | --- | --- | --- | --- | --- | --- | --- |
| CCOc1ccc2nc(SCCN3CCOCC3)[nH]c2c1 [afobazole] | 102 | 110 | 104 | 99.5 | 102 | 95.5 | 97.8 | 84.4 | 101 | 99.8 | 112 | 101 | 107 | 99.5 | 103 | > 10 | > 10 | > 10 | 0 | 0 | 0 | – | – | – | – | – | – | – | – | – | – | – | – | – | – |
| O=C(Nc1cccnc1)c1cc(-c2ccnc(F)c2)ccc1OCc1ccccc1 | 107 | 110 | 94.8 | 92 | 86.6 | 94.2 | 102 | 96.5 | 102 | 104 | – | – | – | – | – | > 10 | > 10 | – | 0.4 | 0 | – | 95.6 | 100 | 95.1 | 96.3 | 97.3 | 99.3 | 101 | 97.8 | 98 | 95.2 | > 10 | > 10 | 0 | 0 |
| NC(=O)c1nc(Nc2ccccc2)sc1NC(=O)C1CCCCC1 [UNC3230] | 98.6 | 97.8 | 98 | 89.2 | 75.1 | 86.3 | 84.9 | 90.8 | 79 | 69.7 | 96.6 | 104 | 88.1 | 104 | 88.5 | > 10 | – | > 10 | 1.9 | 5.6 | 0 | 102 | 96.9 | 97.5 | 93.8 | 88.8 | 99.1 | 92.6 | 98.1 | 99 | 70.8 | > 10 | – | 0 | 1.4 |
| Nc1nc(=O)n([C@H]2C[C@H](O)[C@@H](CO)O2)cc1F [fdcyd] | 93.4 | 106 | 94.9 | 113 | 86.1 | 85.1 | 108 | 84.1 | 85.5 | 68.3 | 117 | 89.8 | 60.1 | 55.2 | 49.8 | > 10 | – | 0.0346 | 0.1 | 3.4 | 14.8 | 102 | 106 | 95.8 | 104 | 86.2 | 99.3 | 105 | 90.7 | 66.4 | 54.9 | > 10 | – | 0.1 | 7 |
| Cc1cc(C)c(Nc2ccnc(Nc3ccc(C#N)cc3)n2)c(C)c1 [dapivirine] | 104 | 94.5 | 99.3 | 86 | 47.8 | 108 | 100 | 97.1 | 100 | 74.4 | 107 | 120 | 95.4 | 103 | 17.3 | 1.49 | – | 3.38 | 4.9 | 1 | 4.3 | 97.7 | 100 | 101 | 99 | 40.3 | 93.7 | 101 | 92.9 | 94.7 | 61.5 | 3.05 | – | 3.4 | 2.8 |
| CS(=O)(=O)c1cccc(CNc2nc(Nc3ccc4c(c3)CCC(=O)N4)ncc2C(F)(F)F)c1 | 94.6 | 101 | 95.3 | 96.6 | 85.5 | 108 | 99.5 | 101 | 88.2 | 88.5 | 104 | 111 | 94.4 | 94.9 | 50.2 | > 10 | > 10 | – | 0.3 | 0.5 | 3.5 | 98.3 | 97.6 | 93.7 | 92.4 | 46 | 103 | 96.9 | 99.1 | 87 | 78.8 | 2.04 | > 10 | 4.2 | 1.8 |
| C[C@]12CCC(=O)C=C1CC[C@@H]1[C@@H]2CC[C@@]2(C)[C@H]1CC[C@]2(O)C(=O)CO [cortodoxone] | 89.6 | 95.5 | 100 | 86.5 | 103 | 106 | 91 | 95.2 | 97.8 | 104 | – | – | – | – | – | > 10 | > 10 | – | 0 | 0 | – | 92.9 | 95.2 | 96.6 | 99.6 | 98.7 | 108 | 108 | 105 | 97.6 | 96.8 | > 10 | > 10 | 0 | 0 |
| CNc1nc(NCc2ccc(NS(C)(=O)=O)cc2Cl)cc(-c2ccccn2)n1 [TC-G-1008] | 93.1 | 105 | 90.4 | 95.1 | 78.5 | 105 | 113 | 98.2 | 90 | 83.7 | 93.9 | 91.2 | 106 | 99.4 | 54.8 | > 10 | > 10 | – | 0.9 | 0.9 | 2.4 | 100 | 108 | 101 | 100 | 79 | 105 | 106 | 98.3 | 101 | 81.5 | > 10 | > 10 | 0.6 | 0.4 |
